The NIST ThermoML archive (doi:10.1016/j.jct.2018.03.011)

Columns and labels:
[1] = for Normal melting temperature: Crystal; for viscosity / mass density: 101.33 kPa, Liquid; for viscosity: Falling or rolling sphere viscometry; for mass density: Vibrating tube method
[2] = Molar enthalpy of transition or fusion; conditions: Crystal; DSC

CCCCn1cc[n+](C)c1.[Br-] [1-butyl-3-methylimidazolium bromide]
Conditions | Normal melting temperature [°C]
[1], visual observation | 79.0

OCCOCCO [diethylene glycol]
[1]
Conditions | mass density [kg/m3] | viscosity [mPa·s]
293.2 K | 1116.4 | 38.11
298.2 K | 1112.8 | 29.82
303.2 K | 1109.2 | 23.64
308.2 K | 1105.7 | 19.02
313.2 K | 1102.1 | 15.6
318.2 K | 1098.5 | 12.69
323.2 K | 1094.8 | 10.62
328.2 K | 1091.2 | 8.853
333.2 K | 1087.5 | 7.362
338.2 K | 1083.8 | 6.208
343.2 K | 1080.1 | 5.324

CC[N+]1(C)CCOCC1.[Br-] [N-ethyl-N-methylmorpholinium bromide]
Conditions | Molar enthalpy of transition or fusion [kcal/mol]
[2] | 3.99

Conditions | Normal melting temperature [°C]
[1], DTA | 172.5

OCCOCCOCCO [triethylene glycol]
[1]
Conditions | mass density [kg/m3] | viscosity [mPa·s]
293.2 K | 1123.1 | 48.32
298.2 K | 1119.2 | 37.16
303.2 K | 1115.4 | 29.27
308.2 K | 1111.5 | 23.74
313.2 K | 1107.6 | 19.26
318.2 K | 1103.8 | 16.41
323.2 K | 1099.9 | 13.51
328.2 K | 1096 | 11.35
333.2 K | 1092.1 | 9.602
338.2 K | 1088.2 | 8.278
343.2 K | 1084.3 | 7.351

CCCC[N+]1(C)CCOCC1.[Br-] [4-butyl-4-methylmorpholinium bromide]
Conditions | Molar enthalpy of transition or fusion [kcal/mol]
[2] | 3.54

Conditions | Normal melting temperature [°C]
[1], DTA | 211.1

O=S1(=O)CCCC1 [sulfolane]
[1]
Conditions | mass density [kg/m3] | viscosity [mPa·s]
308.2 K | 1257.4 | 9.194
313.2 K | 1253 | 8.116
318.2 K | 1248.6 | 7.201
323.2 K | 1244.2 | 6.439
328.2 K | 1239.8 | 5.772
333.2 K | 1235.5 | 5.199
338.2 K | 1231.1 | 4.714
343.2 K | 1226.7 | 4.268
